Source: patent US10273272B2, “Antimicrobial peptides” (Amprologix Limited, priority 2014, dated 2019)
Values after ≈ are worked out from the molar mass of the structure shown. Read-outs that look alike come from different tables or passages of the source. Residues, ends and D or L forms follow the SMILES beside them. No end group written: not given here.

What was measured:
[1] = test system: Gram positive and negative bacteria; assay: Antimicrobial activity against drug-resistant pathogens, summary in words; format: cell-based; conditions: summary of Table 2
Description: (§1) A series of derivatives of the NI0138-51 (SEQ ID NO:12) truncation were carried out with a view to maintaining stability of the helix and/or increasing net positive charge of the peptides (Table 3). Minimum inhibitory concentrations (MICs) were determined for each derivative against a range of Gram positive and Gram negative organisms by a modified 2-fold microtitre broth dilution method (Wu and Hancock, J Biol Chem 1999; 274: 29-35) (Table 2). […] This could not have been predicted.

[2] = test system: P. aeruginosa; format: cell-based
Description: as §1

[3] = test system: Klebsiella (K. pneumoniae); format: cell-based
Description: as §1

[4] = test system: N. lactamica; format: cell-based
Description: as §1

[5] = test system: S aureus 1195; format: cell-based
Description: as §1

[6] = test system: E. coli; format: cell-based; conditions: for Average MIC: average of triplicate experiments, Table 5
Description: as §1

[7] = test system: MRSA; format: cell-based, Staphylococcus aureus
Description: (§2) Experiments were conducted in which the full-length epidermicin peptide (51 amino acids, SEQ ID NO:10) was truncated to yield the derivatives shown in FIG. 1 (SEQ ID NOs:11 to 19). NI011-37 (SEQ ID NO:11) Is the region most similar to other peptides in the public domain, NI0138-51 (SEQ ID NO:12) is the region that is most unique with respect to other peptides in the public domain. All other truncations have been carried out by removing residues from the amino-terminal end of the peptide to each lysine residue (K). Lysine is important in antimicrobial peptides as it contributes to the net positive charge, which is thought to have a key role in the mode of action of ‘cationic’ peptides, like NI01 (SEQ ID NO:10).

[8] = test system: Gram-negative bacteria; format: cell-based; conditions: previous data, not presented
Description: It was a most surprising finding that the truncated and modified novel peptides of the present invention based on the epidermicin peptide were effective against Gram negative bacteria.
as §1

[9] = test system: S. aureus 1195; format: cell-based
Description: as §2

[10] = test system: S. saprophyticus; format: cell-based
Description: as §2

[11] = test system: S. Hominis; format: cell-based
Description: as §2

[12] = test system: VISA; format: cell-based
Description: as §1

[13] = test system: haemolysis; assay: Haemolysis assay (in vitro toxicity testing); format: cell-based; conditions: summary of Table 6
Description: In addition, in vitro toxicity testing (haemolysis assays) indicates a lack of toxicity at levels well above MIC for some peptides, indicating potential for a wide therapeutic window (Table 6). […] Since increased net charge is known to be associated with higher levels of haemolysis, (Dhople and Nagaraj, Peptides 2005: 26: 217-225), this was not wholly unexpected.
Experiments were conducted to assess the percentage haemolysis against peptide concentration for peptides SEQ ID NOs: 4, 5, 6 and 7 against full length epidermicin (SEQ ID NO:10) and SEQ ID NO:12.

[14] = test system: Vanc. resistant Enterococcus; format: cell-based
Description: as §2

[15] = test system: MRSA; format: cell-based, Staphylococcus aureus; remark: listed apart in the source
Description: as §1

With “SFEWIYKQIWKLKRGLA [SEQ ID NO:3, SFEWIYKQIWKLKRGLA]” the “antimicrobial activity against Gram positive and negative bacteria, in words” value (“antimicrobial activity” for short) ([1]; listed as 3) was “significantly reduced activity”, the “antimicrobial activity” value ([1]; listed as SEQ ID: No 3) was “very low levels of activity” and the MIC [2] was >64 µg/mL. The “Average MIC” value [3] was >64 µg/mL, the MIC [3] was >64 µg/mL and the MIC [4] was >64 µg/mL. For the same molecule, the “Average MIC” value [5] was 13 µg/mL, the MIC [5] was 13 µg/mL and the “Average MIC” value ([6]; E. coli 49) was 19 µg/mL. For the same molecule, the MIC ([6]; E. coli 50, Table 2) was 11 µg/mL, the “Average MIC” value ([6]; E. coli 50) was 11 µg/mL and the “Average MIC” value ([6]; E. coli 177) was 5 µg/mL. For the same molecule, the MIC ([6]; E. coli 178, Table 2) was 21 µg/mL, the “Average MIC” value ([6]; E. coli 178) was 21 µg/mL and the “Average MIC” value ([6]; E. coli 187) was 11 µg/mL. The “Average MIC” value ([6]; E. coli DH5a) was 9 µg/mL, the MIC ([6]; E. coli DH5α, Table 2) was 9 µg/mL and the MIC ([6]; E.coli 177, Table 2) was 5 µg/mL. The “activity against E coli strains tested, in words” value ([6]; summary of Table 2) was “good activity”.

For “MAAFMKLIQFLATKGQKYVSLAWKHKGTILKWINAGQSFEWIYKQIKKLWA [SEQ ID NO:10, reference compound]”, the MIC [7] was 0.03 µg/mL, the “MIC values against Gram-negative bacteria” value [8] was > 64 µg/mL and the MIC [9] was 0.16 µg/mL. It also gave an MIC [10] of 0.02 µg/mL and an MIC [11] of 0.42 µg/mL.

For “SFKWPYKQIKKLWA [SEQ ID NO:22, SFKWPYKQIKKLWA]”, the MIC [2] was 64 µg/mL, the MIC [12] was >64 µg/mL and the MIC [5] was 16 µg/mL. For the same molecule, the MIC ([6]; E. coli 178, Table 2) was 32 µg/mL, the MIC ([6]; E. coli DH5α, Table 2) was 10.7 µg/mL and the MIC ([6]; E.coli 177, Table 2) was 13.3 µg/mL.

For “SFKWIYKQPKKLWAKKK [SEQ ID NO:23, SFKWIYKQPKKLWAKKK]”, the MIC [2] was >64 µg/mL, the MIC [3] was >64 µg/mL and the MIC [12] was >64 µg/mL. The MIC [5] was 8 µg/mL, the MIC ([6]; E. coli 50, Table 2) was 18.7 µg/mL and the MIC ([6]; E. coli 178, Table 2) was 26.7 µg/mL. The MIC ([6]; E. coli DH5α, Table 2) was 13.3 µg/mL and the MIC ([6]; E.coli 177, Table 2) was 16 µg/mL.

“KYVSLAWKHKGTILKWINAGQSFEWIYKQIKKLWA [SEQ ID NO:15]” gave an MIC [9] of 8 µg/mL, an MIC [10] of 4 µg/mL and an MIC [11] of 6 µg/mL.

In the case of “KHKGTILKWINAGQSFEWIYKQIKKLWA [SEQ ID NO:16]”, the MIC [7] is reported as 12 µg/mL, the MIC [9] is reported as 8 µg/mL and the MIC [10] is reported as 8 µg/mL. For the same molecule, the MIC [11] was 4 µg/mL.

In the case of CC[C@H](C)[C@H](NC(=O)[C@H](CCC(N)=O)NC(=O)[C@H](CCCCN)NC(=O)[C@H](Cc1ccc(O)cc1)NC(=O)[C@@H](NC(=O)[C@H](Cc1c[nH]c2ccccc12)NC(=O)[C@H](CCCCN)NC(=O)[C@H](Cc1ccccc1)NC(=O)[C@H](CO)NC=O)[C@@H](C)CC)C(=O)N[C@@H](CCCCN)C(=O)N[C@@H](CCCCN)C(=O)N[C@@H](CC(C)C)C(=O)N[C@@H](Cc1c[nH]c2ccccc12)C(=O)N[C@@H](C)C(=O)O [SEQ ID NO:4, formyl-SFKWIYKQIKKLWA] (HELM PEPTIDE1{[O=C[*:2]].S.F.K.W.I.Y.K.Q.I.K.K.L.W.A}$$$$V2.0; C-terminus assumed), the “haemolytic activity / toxicity, in words” value [13] is reported as “higher levels of haemolytic activity”, the MIC [2] is reported as 6.7 µg/mL (≈ 3.59 µM) and the MIC [4] is reported as 6.7 µg/mL (≈ 3.59 µM). For the same molecule, the MIC [5] was 1.7 µg/mL (≈ 0.91 µM), the MIC ([6]; E. coli 50, Table 2) was 2.3 µg/mL (≈ 1.23 µM) and the MIC ([6]; E. coli 178, Table 2) was 1.3 µg/mL (≈ 0.696 µM). It also gave an MIC ([6]; E. coli DH5α, Table 2) of 1.5 µg/mL (≈ 0.803 µM) and an MIC ([6]; E.coli 177, Table 2) of 2 µg/mL (≈ 1.07 µM).

KWINAGQSFEWIYKQIKKLWA [SEQ ID NO:18] gave an MIC [9] of 8 µg/mL, an MIC [10] of 4 µg/mL and an MIC [14] of 4 µg/mL. For the same molecule, the MIC [11] was 6 µg/mL.

“SFEWIYKQIFKLWA [SEQ ID NO:1, SFEWIYKQIFKLWA]” was tested, and the MIC [15] was >64 µg/mL, the “antimicrobial activity” value [1] was “significantly reduced activity” and the MIC [2] was >64 µg/mL. The “Average MIC” value [3] was >64 µg/mL, the MIC [3] was >64 µg/mL and the MIC [4] was >64 µg/mL. The MIC [12] was >64 µg/mL, the “Average MIC” value [5] was >64 µg/mL and the MIC [5] was >64 µg/mL. The “Average MIC” value ([6]; E. coli 49) was >64 µg/mL, the MIC ([6]; E. coli 50, Table 2) was >64 µg/mL and the “Average MIC” value ([6]; E. coli 50) was >64 µg/mL. For the same molecule, the “Average MIC” value ([6]; E. coli 177) was >64 µg/mL, the MIC ([6]; E. coli 178, Table 2) was >64 µg/mL and the “Average MIC” value ([6]; E. coli 178) was >64 µg/mL. For the same molecule, the “Average MIC” value ([6]; E. coli 187) was >64 µg/mL, the “Average MIC” value ([6]; E. coli DH5a) was >64 µg/mL and the MIC ([6]; E. coli DH5α, Table 2) was >64 µg/mL. The MIC ([6]; E.coli 177, Table 2) was >64 µg/mL.

With “SFEWIYKQIKKLWAK [SEQ ID NO:6, SFEWIYKQIKKLWAK]” the “haemolytic activity / toxicity, in words” value [13] was “higher levels of haemolytic activity”, the MIC [2] was 32 µg/mL and the MIC [3] was 10.7 µg/mL. For the same molecule, the MIC [4] was 21.3 µg/mL, the MIC [12] was >64 µg/mL and the MIC [5] was 3.3 µg/mL. It also gave an MIC ([6]; E. coli 50, Table 2) of 4 µg/mL, an MIC ([6]; E. coli 178, Table 2) of 8 µg/mL and an MIC ([6]; E. coli DH5α, Table 2) of 6.7 µg/mL. The MIC ([6]; E.coli 177, Table 2) was 4 µg/mL.
